{"source": "patent US20150376216A1", "about": "“SUGAR-ANALOG PHOSPHORUS-CONTAINING HETEROCYCLES HAVING AN ANTI-METASTATIC ACTIVITY” (CENTRE NATIONAL DE LA RECHERCHE SCIENTIRIQUE, priority 2013, published 2015)", "key": {"melanoma line MDAMB-435": {"tested_on": "melanoma line MDAMB-435", "assay": "Boyden chamber migration test, MDAMB-435", "assay_type": "cell-based, human", "conditions": "for Ki: 24 hours, read-out: Inhibition constant Ki, migration", "description": "The effects of compounds 3.48a, 4.2a and 5.6d on the migration of cancer cells (human glioblastoma line SNB75 or primary culture of human glioblastoma Gli4F1, on the one hand, and MDAMB 435 and A431 on the other hand), were determined by performing a standard migration test in a Boyden chamber (treatment of the cells for 24 hours).\nFor this test, the compounds were dissolved in vitro and used in culture in 0.3% of DMSO. The interior of the inserts was covered with the extracellular matrix protein studied (laminin-1, vitronectin or fibronectin). The cells pretreated at various concentrations and untreated (controls) were deposited in the inserts covered with said protein at a rate of 50 000 cells/500 μl/insert in a medium containing 0.1% of BSA (bovine serum albumin).\n500 μl of medium containing 10% fetal calf serum were then placed in each well of a Companion plate so as to allow the formation of a chemotactic gradient across the porous membrane. After 24 hours of migration in the incubator at 37° C., the supernatent was removed and the inserts rinsed with PBS on each face. The cells were counted with a microscope (Zeiss Axiophot, magnification ×200). This gives a percentage of migration relative to the untreated cells.\nTable 2 below gives, for compound 3.48a, the values for the inhibition constants (Ki) for the migration of a human GBM line (SNB75), of GBM stem cell lines (Gli4, Gli7) and of a breast cancer line MDAMB231, in a Boyden chamber, on various extracellular matrix protein supports. Tables 3 and 4 below give, for compounds 4.2a and 5.6d, the values of the inhibition constants (Ki) for the migration of a melanoma line (MDAMB-435) or of an epidermoid cancer line (A431), in a Boyden chamber, on various extracellular matrix protein supports. The inhibitory effect depends on the line and the stem cells used, but also on the extracellular matrix protein support used."}, "Gli7": {"tested_on": "Gli7", "assay": "MTT antiproliferative test, Gli7", "assay_type": "cell-based", "conditions": "Homo sapiens, read-out: IC50, inhibition of proliferation", "description": "Several cancer cell lines were used for the in vivo or in vitro biological tests: • SNB75 is a human glioblastoma line derived from a primary culture, i.e. derived from a primary malignant cancer tumor. It forms part of the panel of 59 cancer lines referenced by the NCI. Its Cosmic reference number published by the Welcome Trust Sanger Institute is 905982. This line was supplied by a person (M.D. Ph.D of the department of “Radiation Oncology”, Stanford University Medical Center). It was cultured in Ham's F-12 and DMEM (1/1) supplemented with 10% fetal bovine serum. The experiments were performed with cells in the exponential growth phase. • Gli4 (or Gli4F11) and Gli7 are cultures of cancer strain cells derived from human glioblastomas (primary cultures). These lines are CD133^+, CD15^+ which are multipotent and tumorigenic in animals. They were established by J. P. Hugnot (INM INSERM U-1051 Eq. 4), and described in Guichet, P. O. et al, Glia 2013, 61(2), 225-239; • C6 is a rat glioblastoma line. It is referenced in the ATCC under the reference CCL-107. • MDAMB-435 is a melanoma line derived from a mammary melanoma. It forms part of the panel of 59 cancer lines referenced by the NCI. It is referenced at the ATCC under the reference HTB-129. It was cultured in Ham's F-12 and DMEM (1/1) supplemented with 10% fetal bovine serum. […]"}, "B16F10": {"tested_on": "B16F10", "assay": "MTT antiproliferative test, B16F10", "assay_type": "cell-based", "conditions": "Mus musculus, B16-F10, read-out: IC50, inhibition of proliferation", "description": "The lines MDAMB-435 and A431 are seeded at a density of 3000 cells per well in 96-well plates. After 24 hours, compounds 4.2a and 5.6d resuspended in 100% DMSO are added at concentrations of 0-0.001-0.010-0.1-1-10-50 μM for a final constant amount of DMSO of 0.3%. The cultures are maintained for a further 72 hours and an MTT colorimetric test is then performed. 100 μl of a solution of MTT at 5 mg/ml in PBS are added to the culture medium, which is left to incubate for 3 hours. The culture medium is removed and the cells are lyzed by adding 100 μL of a 4 mM HCl solvent, 0.1% Nondet P-40 (NP40) in isopropanol. The yellow tetrazolium MTT salt (3-(4,5-dimethylthiazol-2-yl)-2,5-diphenyl tetrazolium bromide), when it is reduced by the mitochondrial succinate dehydrogenase of active live cells, forms a blue-violet formazan product. The medium then changes from yellow to blue-violet. The intensity of this coloration at 590 nm is proportional to the number of live cells present during the test and gives an indication of the metabolic activity of these cells.\nTable 1 gives the concentration values for 50% inhibition of proliferation (IC50) for compounds 4.2a and 5.6d on lines derived from bowel cancer (CaCo2), skin cancer (A431, MDAMB-435, B16F10), breast cancer (MDAMB-431), […] (HuH7), prostate cancer (DU145) and brain cancer (SNB75, Gli4, Gli7)."}}, "note": "Like-named read-outs stand apart in the source and are kept apart here."}
{"compound": "CC1(C)O[C@H]2[C@@H]([C@H]3COC(C)(C)O3)O[P@](=O)(c3ccccc3)[C@@H](OC(=O)c3ccccc3)[C@H]2O1", "note": "[Compound 4.2a, (SPRSRR)-3-benzoate-4-(2,2-dimethyl-[1,3]dioxolan-4-yl)-2,2-dimethyl-2-oxo-2-phenyl-tetrahydro-2λ^5-[1,2]oxaphosphinane]", "values": [{"measurement": "IC50", "setting": "melanoma line MDAMB-435; Homo sapiens, MDA-MB-435, on fibronectin or vitronectin, read-out: Concentration for a 50% decrease in migration of the cancer cells", "value": "10 to 100", "unit": "nM"}, {"measurement": "Ki", "setting": "melanoma line MDAMB-435; support Fibronectin", "value": 33, "unit": "nM"}, {"measurement": "Ki", "setting": "melanoma line MDAMB-435; support Laminin", "value": 34, "unit": "nM"}, {"measurement": "Ki", "setting": "melanoma line MDAMB-435; support Vitronectin", "value": 61, "unit": "nM"}, {"measurement": "IC50", "setting": "Gli7", "value": 2710, "unit": "nM"}, {"measurement": "IC50", "setting": "B16F10", "value": 13500, "unit": "nM"}]}
